{
  "source": "patent US20110137633A1",
  "about": "“ANTI-VIRAL COMPOUNDS AND METHODS OF IDENTIFYING THE SAME” (ABBOTT LABORATORIES, priority 2009, published 2011)",
  "key": {"HCV 1b replicon": {"test_system": "HCV 1b replicon", "assay": "HCV 1b replicon assay (luciferase reporter)", "format": "cell-based, Hepatitis C virus genotype 1b-Con1", "conditions": "in vitro, relative to compound of FIG. 2A"}, "HCV 1a replicon": {"test_system": "HCV 1a replicon", "assay": "HCV 1a replicon assay (luciferase reporter)", "format": "cell-based, Hepatitis C virus genotype 1a-H77", "conditions": "in vitro, relative to compound of FIG. 2A"}},
  "data": [
    {"smiles": "CC(C)c1ccc2c(Nc3cc(C(=O)N[C@@H](C)c4ccccc4)ccc3Sc3ccc(N)cc3)ncnc2n1", "note": "[compound of FIG. 2B]", "values": [
      {"measurement": "increase in HCV replication inhibitory activities compared to the compound of FIG. 2A", "setting": "HCV 1b replicon", "result": "over 600 fold"},
      {"measurement": "increase in HCV replication inhibitory activities compared to the compound of FIG. 2A", "setting": "HCV 1a replicon", "result": "over 1,000 fold"}
    ]}
  ]
}
